US12421217B2, “Pyrazine derivative or salt thereof, and use of same” (FUJIFILM Corporation, priority 2019, dated 2025)

What was measured:
recombinant human DHODH = target: T1, recombinant human DHODH (Homo sapiens, UniProt Q02127); experiment: Enzyme reaction inhibition test (DHODH enzyme assay, DCIP quenching); assay type: biochemical; details: DCIP absorbance 600 nm, 50 minutes, read-out: Enzyme reaction inhibitory effect (IC50)
T1 construct: DHODH, 31-395 aa, Human, His tag, E. coli, ATGP1615; His tag; purchased ATGen Co. Ltd. ATGP1615; host or cells: E. coli
T1 sequence (Q02127 31-395): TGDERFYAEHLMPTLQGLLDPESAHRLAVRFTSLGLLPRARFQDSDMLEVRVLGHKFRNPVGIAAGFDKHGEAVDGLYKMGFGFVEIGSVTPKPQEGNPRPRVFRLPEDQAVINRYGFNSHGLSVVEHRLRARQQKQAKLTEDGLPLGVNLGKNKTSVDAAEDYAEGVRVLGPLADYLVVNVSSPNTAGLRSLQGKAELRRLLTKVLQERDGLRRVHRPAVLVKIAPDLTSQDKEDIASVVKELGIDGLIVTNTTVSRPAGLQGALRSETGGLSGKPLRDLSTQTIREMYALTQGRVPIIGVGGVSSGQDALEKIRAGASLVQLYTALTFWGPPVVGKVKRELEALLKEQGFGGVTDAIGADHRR
Description: The DHODH enzyme assay was carried out with reference to “Benjamin Bader, Wolfgang Knecht, Markus Fries, and Monika Loffler. Expression, Purification, and Characterization of Histidine-Tagged Rat and Human Flavoenzyme Dihydroorotate Dehydrogenase. Protein Expression and Purification, 1998, 13, 414-422.”
The DHODH activity was evaluated using an enzyme assay system that is coupled with an assay in which a blue coloring agent 2,6-dichlorophenol indophenol (DCIP, available from MP Biomedicals, LLC, MP150118) is quenched. Purified recombinant human DHODH (DHODH, 31-395 aa, Human, His tag, E. coli, ATGP1615) was purchased from ATGen Co. Ltd. The enzyme assay was carried out in a 384-well plate using a buffer solution containing 100 mmol/L Hepes (available from Dojindo Laboratories, 342-01375), 400 mmol/L NaCl (available from FUJIFILM Wako Pure Chemical Corporation, 191-01665), 10% Glycerol (available from FUJIFILM Wako Pure Chemical Corporation, 075-00616), 0.05% Triton X-100 (available from Sigma-Aldrich Co., LLC, T8787-100ML), 0.2 mmol/L Ubiquinone-10 (available from FUJIFILM Wako Pure Chemical Corporation, 216-00761), 0.1 mmol/L DHO (L-dihydroorotic acid, available from Sigma-Aldrich Co., LLC, D7128), 0.5% DMSO (dimethylsulfoxide, available from FUJIFILM Wako Pure Chemical Corporation, 047-29353), 0.175 μg/mL DHODH, and 0.12 mmol/L DCIP and having a pH adjusted to 8.0 by adding 5 mol/L potassium hydroxide (available from FUJIFILM Wako Pure Chemical Corporation, 168-21815). A test compound with a predetermined concentration was added using Biomek NX (available from Beckman Coulter Inc.), and the enzymatic reaction was started by adding the substrate. The enzyme activity was assessed by measuring the decrease in DCIP absorbance (600 nm) for 50 minutes using an EnVision plate-reading spectrophotometer (available from PerkinElmer, Inc.).
The enzyme reaction inhibition rate at each test compound concentration was determined, and the 50% enzyme reaction inhibition concentration [IC50 (nmol/L)] was calculated using XLfit. Enzyme reaction inhibition rate (%)=(amount of luminescence in test compound-added well)/(amount of luminescence in DMSO-added well)×100
The abbreviations in the table have the following meanings. • A: IC50 value<10 nmol/L • B: 10 nmol/L≤IC50 value<100 nmol/L • C: 100 nmol/L≤IC50 value

[1] = system: human myeloid leukemia cell line HL60; experiment: Cell growth test (Cell Titer Glo); assay type: cell-based; details: HL-60, 72 h, HL60 cells, 3 days, read-out: Cell growth inhibitory effect (GI50)
Description: The cell growth test was carried out using the human myeloid leukemia cell line HL60 (available from ATCC, CRL-240). As a culture medium of HL60 cells, RPMI 1640 (available from FUJIFILM Wako Pure Chemical Corporation, 189-02025) supplemented with 10% fetal bovine serum (available from Thermo Fisher Scientific, Inc., 10437-028), and 1% penicillin-streptomycin (10,000 U/mL, available from Thermo Fisher Scientific, Inc., 15140-122) was used. HL60 cells were seeded on a 384-well plate (available from Corning Inc., 4588) at a cell density of 1×10^3 cells/20 μL/well. After culturing overnight, 5 μL of the test compound having a predetermined concentration was added, and 3 days later, 25 μL of Cell Titer Glo (registered trademark) Luminescent Cell Viability Assay (available from Promega Corporation, G7573) was added, and then the amount of luminescence was measured using an EnVision plate reader (available from PerkinElmer, Inc.). Since the amount of luminescence is proportional to the intracellular concentration of adenosine triphosphate (ATP), the amount of luminescence was used as an indicator of the number of viable cells. The growth inhibitory concentration for each test compound concentration was calculated by the following expression.
The growth inhibition rate at each test compound concentration was determined, and the 50% growth inhibitory concentration [GI50 (nmol/L)] was calculated using XLfit. Growth inhibition rate (%)=(amount of luminescence in test compound-added well)/(amount of luminescence in DMSO-added well)×100
The abbreviations in the table have the following meanings. • A: GI50 value<100 nmol/L • B: 100 nmol/L≤GI50 value<1,000 nmol/L • C: 1,000 nmol/L≤GI50 value

| SMILES | IC50 (recombinant human DHODH) | GI50 [1] |
| --- | --- | --- |
| CCOc1ccc(Nc2ncc(C3CC3)nc2C(=O)O)cc1C1=CCOCC1 [Example 19-24] | 10 to 100 nM | 100 to 1000 nM |
| CCCc1c(Nc2ncc(C3CC3)nc2C(=O)O)cccc1C1=CCOCC1 [Example 19-16] | 10 to 100 nM | 100 to 1000 nM |
| O=C(O)c1nc(C2CC2)cnc1Nc1cccc(C2=CCOCC2)c1OCC(F)(F)C(F)(F)F [Example 19-7] | < 10 nM | < 100 nM |
| O=C(O)c1nc(C2CC2)cnc1Nc1cccc(C2CCOCC2)c1CCC(F)F [Example 19-28] | < 10 nM | < 100 nM |
| O=C(O)c1nc(C2CC2)cnc1Nc1cc(F)cc(C2=CCOCC2)c1OCC(F)(F)F [Example 5, 6-cyclopropyl-3-((3-(3,6-dihydro-2H-pyran-4-yl)-5-fluoro-2-(2,2,2-trifluoroethoxy)phenyl)amino) pyrazine-2-carboxylic acid] | < 10 nM | < 100 nM |
| O=C(O)c1nc(C2CC2)cnc1Nc1cccc(C2CCOCC2)c1CCC(F)(F)F [Example 19-15] | < 10 nM | < 100 nM |
| O=C(O)c1nc(C2CC2)cnc1Nc1ccc(F)c(C2=CCOCC2)c1F [Example 19-26] | 10 to 100 nM | ≥ 1000 nM |
| O=C(O)c1nc(C2CC2)cnc1Nc1cccc(C2CCOCC2)c1CC(F)F [Example 19-29] | 10 to 100 nM | < 100 nM |
| O=C(O)c1nc(C2CC2)cnc1Nc1cccc(C2=CCOCC2)c1OCC(F)F [Example 19-3] | < 10 nM | 100 to 1000 nM |
| CCOC(=O)c1nc(C2CC2)cnc1Nc1cccc(C2=CCOCC2)c1OCC(F)(F)F [Example 20, ethyl 6-cyclopropyl-3-((3-(3,6-dihydro-2H-pyran-4-yl)-2-(2,2,2-trifluoroethoxy)phenyl)amino)pyrazine-2-carboxylate] | ≥ 100 nM | 100 to 1000 nM |
| O=C(O)c1nc(C2CC2)cnc1Nc1cc(F)cc(C2=CCOCC2)c1OC(F)F [Example 19-1] | < 10 nM | 100 to 1000 nM |
| O=C(O)c1nc(C2CC2)cnc1Nc1cc(F)cc(C2CCOCC2)c1OC(F)F [Example 11, 6-cyclopropyl-3-((2-(difluoromethoxy)-5-fluoro-3-(tetrahydro-2H-pyran-4-yl)phenyl)amino)pyrazine-2-carboxylic acid] | < 10 nM | < 100 nM |
| Cc1c(Nc2ncc(C3CC3)nc2C(=O)O)cc(F)cc1C1=CCOCC1 [Example 19-4] | 10 to 100 nM | 100 to 1000 nM |
| Cc1cnc(Nc2cccc(C3=CCOCC3)c2OCC(F)(F)F)c(C(=O)O)n1 [Example 19-33] | 10 to 100 nM | ≥ 1000 nM |
| CC(Oc1c(Nc2ncc(C3CC3)nc2C(=O)O)cccc1C1=CCOCC1)C(F)(F)F (centres unmarked) [Example 19-6] | 10 to 100 nM | 100 to 1000 nM |
| O=C(O)c1nc(C2CC2)cnc1Nc1cccc(C2CCOCC2)c1C1CC1 [Example 19-12] | < 10 nM | 100 to 1000 nM |
| COc1c(Nc2ncc(C3CC3)nc2C(=O)O)cccc1C1=CCOCC1 [Example 19-20] | 10 to 100 nM | ≥ 1000 nM |

| SMILES | IC50 (recombinant human DHODH) | GI50 [1] |
| --- | --- | --- |
| O=C(O)c1nc(C2CC2)cnc1Nc1cccc(C2=CCOCC2)c1CCCF [Example 19-27] | 10 to 100 nM | 100 to 1000 nM |
| O=C(O)c1nc(C2CC2)cnc1Nc1cccc(C2=CCOCC2)c1COCC(F)(F)F [Example 19-10] | 10 to 100 nM | 100 to 1000 nM |
| CCc1c(Nc2ncc(C3CC3)nc2C(=O)O)cccc1C1CCOCC1 [Example 12, 6-cyclopropyl-3-((2-ethyl-3-(tetrahydro-2H-pyran-4-yl)phenyl)amino)pyrazine-2-carboxylic acid] | < 10 nM | < 100 nM |
| CC(C)OC(=O)c1nc(C2CC2)cnc1Nc1cccc(C2=CCOCC2)c1OCC(F)(F)F [Example 21, isopropyl 6-cyclopropyl-3-((3-(3,6-dihydro-2H-pyran-4-yl)-2-(2,2,2-trifluoroethoxy)phenyl)amino)pyrazine-2-carboxylate] | ≥ 100 nM | ≥ 1000 nM |
| CCOc1c(C2=CCOCC2)cc(F)c(F)c1Nc1ncc(C2CC2)nc1C(=O)O [Example 19-2] | 10 to 100 nM | 100 to 1000 nM |
| CCCCc1c(Nc2ncc(C3CC3)nc2C(=O)O)cccc1C1CCOCC1 [Example 19-17] | < 10 nM | 100 to 1000 nM |
| CC(C)c1c(Nc2ncc(C3CC3)nc2C(=O)O)cccc1C1CCOCC1 [Example 19-13] | < 10 nM | 100 to 1000 nM |
| CC(C)c1cnc(Nc2cccc(C3=CCOCC3)c2OCC(F)(F)F)c(C(=O)O)n1 [Example 19-31] | 10 to 100 nM | 100 to 1000 nM |
| COC(=O)c1nc(C2CC2)cnc1Nc1cccc(C2=CCOCC2)c1OCC(F)(F)F [Example 1, methyl 6-cyclopropyl-3-((3-(3,6-dihydro-2H-pyran-4-yl)-2-(2,2,2-trifluoroethoxy)phenyl)amino)pyrazine-2-carboxylate] | ≥ 100 nM | 100 to 1000 nM |
| O=C(O)c1nc(C2CC2)cnc1Nc1cc(F)cc(C2CCOCC2)c1OCC(F)(F)F [Example 6, 6-cyclopropyl-3-((5-fluoro-3-(tetrahydro-2H-pyran-4-yl)-2-(2,2,2-trifluoroethoxy)phenyl)amino) pyrazine-2-carboxylic acid] | < 10 nM | < 100 nM |
| CCc1cnc(Nc2cccc(C3=CCOCC3)c2OCC(F)(F)F)c(C(=O)O)n1 [Example 19-32] | 10 to 100 nM | 100 to 1000 nM |
| CCOc1c(Nc2ncc(C3CC3)nc2C(=O)O)cc(F)cc1C1=CCOCC1 [Example 19-5] | 10 to 100 nM | 100 to 1000 nM |
| CCOc1c(Nc2ncc(C3CC3)nc2C(=O)O)ccc(F)c1C1=CCOCC1 [Example 19-25] | < 10 nM | 100 to 1000 nM |
| CCOc1ccc(Nc2ncc(C3CC3)nc2C(=O)O)c(OCC)c1C1=CCOCC1 [Example 19-23] | 10 to 100 nM | 100 to 1000 nM |
| O=C(O)c1nc(C2CC2)cnc1Nc1cccc(C2CCOCC2)c1CCF [Example 19-19] | 10 to 100 nM | ≥ 1000 nM |
| CC1=C(c2cccc(Nc3ncc(C4CC4)nc3C(=O)O)c2OCC(F)(F)F)CCOC1 [Example 19-14] | < 10 nM | < 100 nM |
| O=C(O)c1nc(C2CC2)cnc1Nc1cccc(C2=CCOCC2)c1OCCC(F)(F)F [Example 19-8] | < 10 nM | < 100 nM |
